This is an account of results in ChEMBL document CHEMBL1201862, “PubChem BioAssay data set” (2004).

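Results reflect a 48-hour exposure of cells in 96-well plates to compound at five concentrations. Abbreviation: GI50, concentration required for 50% inhibition of growth.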 Activity calls are given as the source filed them. No stated cut-off is given here; in the data, active = GI50 up to about 1.1 µM and inactive = higher. Where only a bound is given, the exact number is not on record here.

Some test systems named below: 786-0; SNB-75; IGROV-1; OVCAR-5; HOP-62; Malme-3M; LXFL 529; NCI-H23; SK-MEL-28; M14; ACHN; CCRF-CEM; Hs-578T; SK-OV-3; NCI-H522; MDA-N; CAKI-1; DU-145; SF-539; K562.
Holding throughout (test): NCI tumour cell line growth inhibition, 48 h

On to `COc1ccc(/C(=N\NC(=O)C(N)=O)C(c2ccc(OC)cc2)C2(O)C(=O)Nc3c(Cl)cccc32)cc1` (configuration not stated), for which the GI50 in the assay with 786-0 is 74.8 µM (inactive); in the assay on SNB-75 it was > 100 µM (inactive); with IGROV-1, > 100 µM (inactive); with OVCAR-5, > 100 µM (inactive); in the assay on HOP-62, > 100 µM (inactive); with Malme-3M, > 100 µM (inactive). The GI50 with LXFL 529 was > 100 µM (inactive); with NCI-H23, > 100 µM (inactive); in the assay with SK-MEL-28, > 100 µM (inactive); in the assay on M14 it was > 100 µM (inactive); with ACHN, > 100 µM (inactive); in the assay with CCRF-CEM, 50.1 µM (inactive).
Take `C[N+]12C=CC=C1C(N1CCCC1)c1scc(-c3ccc(Br)cc3)c12` (configuration not stated): the GI50 in the assay with Hs-578T was 1.98 µM (inactive); with SK-OV-3 it was > 81.7 µM (inactive); in the assay on 786-0 it was 16.7 µM (inactive); in the assay with SNB-75 it was 3.1 µM (inactive); in the assay on NCI-H522, 1.64 µM (inactive); with IGROV-1, 4.58 µM (inactive). Also, the GI50 with OVCAR-5 was 42.1 µM (inactive); with HOP-62, 14.8 µM (inactive); in the assay on MDA-N, 27 µM (inactive); in the assay on Malme-3M, 9.4 µM (inactive); in the assay on NCI-H23 it was 3.49 µM (inactive); with CAKI-1, > 62.5 µM (inactive). Moreover, the GI50 in the assay with SK-MEL-28 is 19 µM (inactive); in the assay with M14 it was 27.7 µM (inactive); with ACHN, > 88.9 µM (inactive); in the assay with DU-145 it was 33.7 µM (inactive); in the assay on CCRF-CEM, 18.2 µM (inactive); in the assay on SF-539, 4 µM (inactive). Further, in the assay with K562, the GI50 is 6.7 µM (inactive).
Consider `COC(=O)NC1(NC(=O)OC)NC(=O)c2cc(OC)c(OC)c(OC)c2N1`, for which the GI50 is 13.3 µM (inactive) in the assay on Hs-578T; 2.62 µM (inactive) in the assay on SK-OV-3; 39 µM (inactive) with 786-0; 13.7 µM (inactive) in the assay with SNB-75; 6.98 µM (inactive) with NCI-H522; 53.1 µM (inactive) with IGROV-1. Moreover, the GI50 was > 100 µM (inactive) in the assay with OVCAR-5; 21.1 µM (inactive) in the assay with HOP-62; 3.15 µM (inactive) in the assay on MDA-N; 1.33 µM (inactive) with Malme-3M; 32.7 µM (inactive) with NCI-H23; 63.8 µM (inactive) with CAKI-1. Also, the GI50 with SK-MEL-28 is 84.3 µM (inactive); in the assay on M14, 21.8 µM (inactive); with ACHN, 86.5 µM (inactive); with DU-145, 32 µM (inactive); with CCRF-CEM, 82 µM (inactive); in the assay on SF-539, 23.6 µM (inactive). In addition, the GI50 with K562 is 12.3 µM (inactive).
As for `CC1=C2C(=O)c3ccccc3C(=O)[C@H]2[C@H]2CCO[C@H]2O1`, the GI50 is 41.7 µM (inactive) in the assay with Hs-578T; 50.4 µM (inactive) in the assay on SK-OV-3; 18.5 µM (inactive) in the assay with 786-0; 19.8 µM (inactive) in the assay on SNB-75; 16.3 µM (inactive) in the assay on NCI-H522; 14.2 µM (inactive) in the assay on IGROV-1. The GI50 was 23.7 µM (inactive) in the assay with OVCAR-5; 21.3 µM (inactive) with HOP-62; 19.2 µM (inactive) in the assay with MDA-N; 19.1 µM (inactive) with Malme-3M; 20.1 µM (inactive) in the assay on NCI-H23; 22.2 µM (inactive) with CAKI-1. Further, the GI50 was 24.3 µM (inactive) in the assay with SK-MEL-28; 20.6 µM (inactive) in the assay with M14; 20.9 µM (inactive) in the assay on ACHN; 22.3 µM (inactive) in the assay on DU-145; 25.4 µM (inactive) in the assay with CCRF-CEM; 22.1 µM (inactive) in the assay with SF-539. The GI50 in the assay with K562 was 27.4 µM (inactive).
`C/C=C/[C@@H]1[C@H]2C(=O)[C@]3(Cl)[C@@H](/C=C/C)[C@@H]3C(=O)[C@@]12Cl`: the GI50 in the assay on Hs-578T was 35.2 µM (inactive); in the assay with SK-OV-3 it was > 100 µM (inactive); with 786-0, 46.8 µM (inactive); in the assay on SNB-75 it was 53.3 µM (inactive); in the assay with NCI-H522 it was > 100 µM (inactive); in the assay on IGROV-1 it was > 100 µM (inactive). Besides, the GI50 is > 100 µM (inactive) in the assay on OVCAR-5; 33.7 µM (inactive) with HOP-62; > 100 µM (inactive) in the assay on MDA-N; > 100 µM (inactive) in the assay with Malme-3M; > 100 µM (inactive) in the assay with NCI-H23; > 100 µM (inactive) in the assay on CAKI-1. Besides, the GI50 was > 100 µM (inactive) with SK-MEL-28; > 100 µM (inactive) in the assay on M14; > 100 µM (inactive) in the assay on ACHN; > 100 µM (inactive) in the assay with DU-145; 52 µM (inactive) with CCRF-CEM; > 100 µM (inactive) in the assay with SF-539. In the assay with K562, the GI50 was > 100 µM (inactive).
For `CCC1=C(C)C(=O)N/C1=C\c1[nH]c(C)c([C@H](C)CCN)c1C`, the GI50 in the assay with Hs-578T was 11.9 µM (inactive); in the assay on SK-OV-3, 16.9 µM (inactive); in the assay on 786-0, 14.7 µM (inactive); in the assay on SNB-75, 10.1 µM (inactive); with NCI-H522, 11.6 µM (inactive); in the assay with IGROV-1, 17 µM (inactive). The GI50 in the assay with OVCAR-5 was 17.5 µM (inactive); in the assay on HOP-62, 16.6 µM (inactive); in the assay with MDA-N it was 15.3 µM (inactive); with Malme-3M, 18.7 µM (inactive); with NCI-H23 it was 13.3 µM (inactive); with CAKI-1, 17.1 µM (inactive). In addition, the GI50 in the assay on SK-MEL-28 was 17.3 µM (inactive); in the assay on M14 it was 15.8 µM (inactive); in the assay on ACHN it was 18.6 µM (inactive); in the assay on DU-145, 16.9 µM (inactive); in the assay on CCRF-CEM, 23 µM (inactive); with SF-539, 0.0944 µM (active). The GI50 in the assay with K562 is 46.6 µM (inactive).
For `CNC1Cc2c[nH]c3cccc(c23)C12C=C(C)C(=O)O2` (configuration not stated), the GI50 with Hs-578T, in the assay on SK-OV-3, in the assay with 786-0, in the assay on SNB-75, with NCI-H522 and with IGROV-1 was > 100 µM (inactive) throughout. Also, the GI50 in the assay on OVCAR-5, in the assay on HOP-62, in the assay on MDA-N, in the assay with Malme-3M, with NCI-H23 and with CAKI-1 was > 100 µM (inactive) each time. Moreover, the GI50 in the assay with SK-MEL-28, in the assay on M14, in the assay with ACHN, with DU-145, with CCRF-CEM and with SF-539 was > 100 µM (inactive) each time. Further, the GI50 in the assay with K562 is > 100 µM (inactive).
For the compound `COc1ccc(-c2c3c(cc4cc5c(cc24)OCO5)C(=O)OC3)cc1OC`, the GI50 in the assay with Hs-578T is 6.22 µM (inactive); with SK-OV-3, 13.4 µM (inactive); in the assay on 786-0, 2.12 µM (inactive); in the assay with SNB-75, 6.92 µM (inactive); with NCI-H522, 0.392 µM (active); in the assay on IGROV-1, 0.336 µM (active). The GI50 with OVCAR-5 is 9.55 µM (inactive); in the assay with HOP-62, 0.313 µM (active); with MDA-N, 2.01 µM (inactive); in the assay on Malme-3M it was 0.51 µM (active); in the assay on NCI-H23, 6.98 µM (inactive); in the assay with CAKI-1, 0.571 µM (active). Also, the GI50 was 1.37 µM (inactive) in the assay on SK-MEL-28; 0.305 µM (active) with M14; 1.37 µM (inactive) in the assay with ACHN; 2.7 µM (inactive) in the assay with DU-145; 4.06 µM (inactive) in the assay on CCRF-CEM; 3.5 µM (inactive) in the assay on SF-539. The GI50 with K562 is 0.69 µM (active).
`CC(=O)Oc1cc(OC(C)=O)c(OC(C)=O)c2c1CC1C(=O)C3(CCc4ccccc43)C(=O)C1C2` (configuration not stated): the GI50 in the assay with SK-OV-3 was 32.1 µM (inactive); in the assay on 786-0, 13.6 µM (inactive); with SNB-75, 0.912 µM (active); in the assay on IGROV-1, 19.8 µM (inactive); with HOP-62, 21.1 µM (inactive); with Malme-3M, 7.57 µM (inactive). The GI50 was 14.4 µM (inactive) with LXFL 529; 18.4 µM (inactive) in the assay on NCI-H23; 20.2 µM (inactive) with CAKI-1; 18.2 µM (inactive) with SK-MEL-28; > 100 µM (inactive) in the assay on M14; 13.4 µM (inactive) in the assay with ACHN. For the same compound, the GI50 in the assay with CCRF-CEM was 10.7 µM (inactive); in the assay on K562, 9.2 µM (inactive).
On to `NC1=Nc2ccccc2Sc2nnc(-c3ccc(Cl)cc3)n21`, for which the GI50 in the assay on Hs-578T is 35.2 µM (inactive); in the assay with SK-OV-3, > 100 µM (inactive); in the assay on 786-0, 24 µM (inactive); in the assay with SNB-75, 17.3 µM (inactive); with NCI-H522, 8.18 µM (inactive); in the assay with IGROV-1 it was 48.8 µM (inactive). Further, the GI50 in the assay on OVCAR-5 was > 100 µM (inactive); with HOP-62, 23.7 µM (inactive); with MDA-N, > 100 µM (inactive); with Malme-3M, > 100 µM (inactive); in the assay on NCI-H23, > 100 µM (inactive); in the assay with CAKI-1, 72.4 µM (inactive). Further, the GI50 in the assay with SK-MEL-28 was > 100 µM (inactive); with M14, > 100 µM (inactive); in the assay on ACHN, 47 µM (inactive); in the assay with DU-145, 49.2 µM (inactive); with CCRF-CEM, 14.8 µM (inactive); in the assay with SF-539 it was 26.2 µM (inactive). Besides, the GI50 in the assay on K562 was 12.2 µM (inactive).
For the compound `Cc1ccc(NNc2cc(=O)[nH]c(=O)[nH]2)cc1Cl`, the GI50 with Hs-578T is 83.2 µM (inactive); with SK-OV-3 it was 41.4 µM (inactive); with 786-0, 14.6 µM (inactive); in the assay on SNB-75 it was > 100 µM (inactive); in the assay on NCI-H522 it was 16.5 µM (inactive); in the assay with IGROV-1, 13.8 µM (inactive). Further, the GI50 is 73.8 µM (inactive) in the assay with OVCAR-5; 71.9 µM (inactive) with HOP-62; 15.2 µM (inactive) in the assay with MDA-N; 17.8 µM (inactive) in the assay with Malme-3M; 16.8 µM (inactive) in the assay with NCI-H23; 14.4 µM (inactive) with CAKI-1. Further, the GI50 was 17.2 µM (inactive) in the assay on SK-MEL-28; 13.7 µM (inactive) in the assay on M14; 9.42 µM (inactive) in the assay on ACHN; 37 µM (inactive) with DU-145; 11.1 µM (inactive) in the assay on CCRF-CEM; 19.5 µM (inactive) with SF-539. In addition, the GI50 in the assay on K562 was 2.99 µM (inactive).
